# Laboratory results reported in US10513519B2, “Solid forms of (1S,4S)-4-(2-(((3S,4R)-3-fluorotetrahydro-2H-pyran-4-yl)amino)-8-((2,4,6-trichlorophenyl)amino)-9H-purin-9-yl)-1-methylcyclohexane-1-carboxamide and methods of their use” (Signal Pharmaceuticals, LLC, priority 2016, dated 2019).
# Test system: cancer cell lines
# Assay: Multiplexed cytotoxicity assay: cell proliferation (relative cell count IC50, GI50)
# Assay type: cell-based
# Method: (§1) Cells are grown in RPMI1640, 10% FBS, 2 mM L-alanyl-L-Glutamine, 1 mM Na pyruvate or a special medium in a humidified atmosphere of 5% CO2 at 37° C. Cells are seeded into 384-well plates and incubated in a humidified atmosphere of 5% CO2 at 37° C. Compounds are added 24 h post cell seeding. At the same time, a time zero untreated cell plate is generated. After a 72 hour incubation period, cells are fixed and stained with fluorescently labeled antibodies and nuclear dye to allow visualization of nuclei, apoptotic cells and mitotic cells. Apoptotic cells are detected using an anti-active caspase-3 antibody. Mitotic cells are detected using an anti phospho-histone-3 antibody. Compounds are serially diluted 3.16-fold and assayed over 10 concentrations in a final assay concentration of 0.1% DMSO from the highest test concentration of 10 μM. Automated fluorescence microscopy was carried out using a Molecular Devices ImageXpress Micro XL high-content imager, and images are collected with a 4× objective.
# (§2) Sixteen-bit TIFF images are acquired and analyzed with MetaXpress 5.1.0.41 software. Cell proliferation is measured by the signal intensity of the incorporated nuclear dye. The cell proliferation assay output is referred to as the relative cell count. To determine the cell proliferation end point, the cell proliferation data output is transformed to percentage of control (POC) using the following formula: POC=relative cell count(compound wells)/relative cell count(vehicle wells)×100
# (§3) GI50 is the concentration needed to reduce the observed growth by half. This is the concentration that inhibits the growth to the level midway between growth in untreated cells and the number of cells seeded in the well (Time zero value). The IC50 values are calculated using nonlinear regression to fit data to a sigmoidal 4 point, 4 parameter One-Site dose response model, where: y(fit)=A+[(B−A)/(1+((C/x)^D))].
# as §1, with “In another experiment, cells were grown” for “Cells are grown”, “Cells were” for “Cells are”, “Compounds were” for “Compounds are”, “plate was” for “plate is”, “cells were” for “cells are”, “images were” for “images are”
# as §2, with “images were” for “images are”, “proliferation was” for “proliferation is”, “output was” for “output is”
# as §3, with “GI50 refers to” for “GI50 is”, “This corresponds to” for “This is”, “values were” for “values are”
# [1] = 72 h, G292CLONEA141B1, Soft Tissue, Osteosarcoma
# [2] = 72 h, HOS, Soft Tissue, Osteosarcoma
# [3] = 72 h, HS729, Soft Tissue, Sarcoma
# [4] = 72 h, HS821T, Soft Tissue, Sarcoma
# [5] = 72 h, HS888SK, Soft Tissue, Osteosarcoma
# [6] = 72 h, IM9, Hematopoietic and lymphoid, Myeloma
# [7] = 72 h, TE125T, Soft Tissue, Sarcoma
# [8] = 72 h, U266B1, Hematopoietic and lymphoid, Myeloma
# [9] = 72 h, VAESBJ, Soft Tissue, Sarcoma
# [10] = BC1 (Hematopoietic and lymphoid, Lymphoma)
# [11] = BCP-1, BCP1 (Hematopoietic and lymphoid, Lymphoma)
# [12] = BM-1604, 72 h, BM1604, Prostate, 72 h
# [13] = CEM/C1, CEMC1 (Hematopoietic and lymphoid, Leukemia)
# [14] = CML-T1, CMLT1 (Hematopoietic and lymphoid, Leukemia)
# [15] = D341 Med, D341MED (CNS, Medulloblastoma)
# [16] = DB (Hematopoietic and lymphoid, Lymphoma)
# [17] = EB2 (Hematopoietic and lymphoid, Lymphoma)
# [18] = EB3 (Hematopoietic and lymphoid, Lymphoma)
# [19] = EM2 (Hematopoietic and lymphoid, Leukemia)
# [20] = H9 (Hematopoietic and lymphoid, Lymphoma)
# [21] = HS611T (Hematopoietic and lymphoid, Lymphoma)
# [22] = HT (Hematopoietic and lymphoid, Lymphoma)
# [23] = HUH-6-clone5, HUH6CLONE5 (Liver)
# [24] = Homo sapiens, 22Rv1, 72 h, 22RV1, Prostate, 72 h
# [25] = Homo sapiens, 639-V, 639V (Bladder)
# [26] = Homo sapiens, 647-V, 647V (Bladder)
# [27] = Homo sapiens, 769-P, 769P (Kidney)
# [28] = Homo sapiens, 786-0, 786O (Kidney)
# [29] = Homo sapiens, A101D, A101D (Skin, Melanoma)
# [30] = Homo sapiens, A 172, A172 (CNS, Glioma)
# [31] = Homo sapiens, A204, 72 h, A204, Soft Tissue, Sarcoma, 72 h
# [32] = Homo sapiens, A253, A253 (Head and Neck)
# [33] = Homo sapiens, A498, A498 (Kidney)
# [34] = Homo sapiens, A549, 72 h, A549, Lung, NSCLC, 72 h
# [35] = Homo sapiens, A673, 72 h, A673, Soft Tissue, Sarcoma, 72 h
# [36] = Homo sapiens, A704, A704 (Kidney)
# [37] = Homo sapiens, A2058, A2058 (Skin, Melanoma)
# [38] = Homo sapiens, A-375, A375 (Skin, Melanoma)
# [39] = Homo sapiens, A-427, 72 h, A427, Lung, NSCLC, 72 h
# [40] = Homo sapiens, A-431, A431 (Skin, Carcinoma)
# [41] = Homo sapiens, ACHN, ACHN (Kidney)
# [42] = Homo sapiens, AN3-CA, 72 h, AN3CA, Female GU, Uterus
# [43] = Homo sapiens, ARH-77, 72 h, ARH77, Hematopoietic and lymphoid, Myeloma, 72 h
# [44] = Homo sapiens, ASPC1, 72 h, ASPC1, Pancreas, 72 h
# [45] = Homo sapiens, AU565, AU565 (Breast)
# [46] = Homo sapiens, BE(2)-C, 72 h, BE2C, CNS, Neuroblastoma
# [47] = Homo sapiens, BFTC-905, BFTC905 (Bladder)
# [48] = Homo sapiens, BHT-101, 72 h, BHT101, Endocrine, Thyroid, 72 h
# [49] = Homo sapiens, BPH-1, 72 h, BPH1, Prostate, 72 h
# [50] = Homo sapiens, BT-20, BT20 (Breast)
structure (smiles),measurement,setting,value
"C[C@]1(C(N)=O)CC[C@@H](n2c(Nc3c(Cl)cc(Cl)cc3Cl)nc3cnc(N[C@@H]4CCOC[C@H]4F)nc32)CC1 [Compound 1, cis-4-[2-{[(3S,4R)-3-fluorooxan-4-yl]amino}-8-(2,4,6-trichloroanilino)-9H-purin-9-yl]-1-methylcyclohexane-1-carboxamide]",GI50,5637 (Bladder),6850 nM
same,IC50,5637 (Bladder),9770 nM
same,GI50,"72 h, AGS, Stomach",8.6 nM
same,IC50,"72 h, AGS, Stomach",9.8 nM
same,GI50,[1],27.2 nM
same,IC50,[1],49.3 nM
same,GI50,[2],2570 nM
same,IC50,[2],3690 nM
same,GI50,"72 h, HS229T, Lung, NSCLC",415 nM
same,IC50,"72 h, HS229T, Lung, NSCLC",> 10000 nM
same,GI50,[3],540 nM
same,IC50,[3],> 10000 nM
same,GI50,[4],169 nM
same,IC50,[4],> 10000 nM
same,GI50,[5],111 nM
same,IC50,[5],> 10000 nM
same,GI50,[6],91.1 nM
same,IC50,[6],143 nM
same,GI50,"72 h, JAR, Female GU, Placenta",3170 nM
same,IC50,"72 h, JAR, Female GU, Placenta",3210 nM
same,GI50,"72 h, KLE, Female GU, Uterus",> 10000 nM
same,IC50,"72 h, KLE, Female GU, Uterus",> 10000 nM
same,GI50,"72 h, PA1, Female GU, Ovary",471 nM
same,IC50,"72 h, PA1, Female GU, Ovary",2620 nM
same,GI50,"72 h, PC3, Prostate",7820 nM
same,IC50,"72 h, PC3, Prostate",8540 nM
same,GI50,"72 h, RD, Soft Tissue, Sarcoma",36.7 nM
same,IC50,"72 h, RD, Soft Tissue, Sarcoma",44.3 nM
same,GI50,"72 h, SKPNDW, Stomach",3600 nM
same,IC50,"72 h, SKPNDW, Stomach",> 10000 nM
same,GI50,[7],1090 nM
same,IC50,[7],> 10000 nM
same,GI50,"72 h, TT, Endocrine, Thyroid",86.3 nM
same,IC50,"72 h, TT, Endocrine, Thyroid",> 10000 nM
same,GI50,[8],13.3 nM
same,IC50,[8],109 nM
same,GI50,[9],336 nM
same,IC50,[9],580 nM
same,GI50,"A7 (Skin, Melanoma)",1720 nM
same,IC50,"A7 (Skin, Melanoma)",7270 nM
same,GI50,A388 (Head and Neck),422 nM
same,IC50,A388 (Head and Neck),1120 nM
same,GI50,[10],> 10000 nM
same,IC50,[10],> 10000 nM
same,GI50,[11],20.5 nM
same,IC50,[11],79.7 nM
same,GI50,[12],141 nM
same,IC50,[12],401 nM
same,GI50,"C4I (Female GU, Cervix)",> 10000 nM
same,IC50,"C4I (Female GU, Cervix)",> 10000 nM
same,GI50,"C32 (Skin, Melanoma)",28.9 nM
same,IC50,"C32 (Skin, Melanoma)",111 nM
same,GI50,"C32TG, C32TG (Skin, Melanoma)",40.8 nM
same,IC50,"C32TG, C32TG (Skin, Melanoma)",109 nM
same,GI50,[13],> 10000 nM
same,IC50,[13],> 10000 nM
same,GI50,[14],149 nM
same,IC50,[14],> 10000 nM
same,GI50,[15],10000 nM
same,IC50,[15],21.9 nM
same,GI50,[16],13.1 nM
same,IC50,[16],> 10000 nM
same,GI50,"DKMG (CNS, Glioma)",20.7 nM
same,IC50,"DKMG (CNS, Glioma)",126 nM
same,GI50,[17],389 nM
same,IC50,[17],550 nM
same,GI50,[18],1630 nM
same,IC50,[18],2150 nM
same,GI50,[19],48.1 nM
same,IC50,[19],93.6 nM
same,GI50,"H4 (CNS, Glioma)",758 nM
same,IC50,"H4 (CNS, Glioma)",943 nM
same,GI50,[20],23.2 nM
same,IC50,[20],39 nM
same,GI50,HLE (Liver),683 nM
same,IC50,HLE (Liver),1040 nM
same,GI50,HLF (Liver),4760 nM
same,IC50,HLF (Liver),6470 nM
same,GI50,[21],10.6 nM
same,IC50,[21],12.3 nM
same,GI50,"HS688AT (Skin, Melanoma)",82.2 nM
same,IC50,"HS688AT (Skin, Melanoma)",> 10000 nM
same,GI50,"HS852T (Skin, Melanoma)",56.4 nM
same,IC50,"HS852T (Skin, Melanoma)",715 nM
same,GI50,"HS895T (Skin, Melanoma)",> 10000 nM
same,IC50,"HS895T (Skin, Melanoma)",> 10000 nM
same,GI50,"HS934T (Skin, Melanoma)",5.2 nM
same,IC50,"HS934T (Skin, Melanoma)",> 10000 nM
same,GI50,"HS936TC1 (Skin, Melanoma)",18.4 nM
same,IC50,"HS936TC1 (Skin, Melanoma)",25.8 nM
same,GI50,"HT3 (Female GU, Cervix)",856 nM
same,IC50,"HT3 (Female GU, Cervix)",3210 nM
same,GI50,[22],8300 nM
same,IC50,[22],> 10000 nM
same,GI50,[23],145 nM
same,IC50,[23],354 nM
same,GI50,[24],2660 nM
same,IC50,[24],5580 nM
same,GI50,[25],184 nM
same,IC50,[25],206 nM
same,GI50,[26],6930 nM
same,IC50,[26],7820 nM
same,GI50,[27],194 nM
same,IC50,[27],255 nM
same,GI50,[28],2040 nM
same,IC50,[28],6920 nM
same,GI50,[29],42.4 nM
same,IC50,[29],81.5 nM
same,GI50,[30],64.9 nM
same,IC50,[30],139 nM
same,GI50,[31],> 10000 nM
same,IC50,[31],> 10000 nM
same,GI50,[32],171 nM
same,IC50,[32],> 10000 nM
same,GI50,[33],522 nM
same,IC50,[33],808 nM
same,GI50,[34],102 nM
same,IC50,[34],128 nM
same,GI50,[35],3750 nM
same,IC50,[35],3870 nM
same,GI50,[36],> 10000 nM
same,IC50,[36],> 10000 nM
same,GI50,[37],212 nM
same,IC50,[37],288 nM
same,GI50,[38],6.5 nM
same,IC50,[38],7.2 nM
same,GI50,[39],47.5 nM
same,IC50,[39],76.3 nM
same,GI50,[40],228 nM
same,IC50,[40],311 nM
same,GI50,[41],306 nM
same,IC50,[41],550 nM
same,GI50,[42],713 nM
same,IC50,[42],7030 nM
same,GI50,[43],> 10000 nM
same,IC50,[43],> 10000 nM
same,GI50,[44],30.8 nM
same,IC50,[44],> 10000 nM
same,GI50,[45],8150 nM
same,IC50,[45],8770 nM
same,GI50,[46],146 nM
same,IC50,[46],210 nM
same,GI50,[47],51.5 nM
same,IC50,[47],54.6 nM
same,GI50,[48],37.6 nM
same,IC50,[48],41.2 nM
same,GI50,[49],57.8 nM
same,IC50,[49],67.5 nM
same,GI50,[50],8360 nM
same,IC50,[50],> 10000 nM
